Measurements from US7763641B2, “Broadspectrum heterocyclic substituted phenyl containing sulfonamide HIV protease inhibitors” (Tibotec Pharmaceuticals Ltd., priority 2001, dated 2010).
Read-outs that look alike come from different tables or passages of the source.

What was measured:
HIV strain C = assay: Cellular anti-HIV assay, clinically isolated mutant strain C; assay type: cell-based; details: FR=EC50 (mutant strain)/EC50 (HIV-1 strain LAI)
Protocol: (§1) HIV- or mock-infected MT4 cells were incubated for five days in the presence of various concentrations of the inhibitor. […] Cell viability is measured by measuring the concentration of MTT, a yellow, water soluble tetrazolium dye that is converted to a purple, water insoluble formazan in the mitochondria of living cells only. Upon solubilization of the resulting formazan crystals with isopropanol, the absorbance of the solution is monitored at 540 nm. The values correlate directly to the number of living cells remaining in the culture at the completion of the five day incubation. The inhibitory activity of the compound was monitored on the virus-infected cells and was expressed as EC50 and EC90. These values represent the amount of the compound required to protect 50% and 90%, respectively, of the cells from the cytopathogenic effect of the virus. […] The selectivity index (SI) (ratio CC50/EC50) is an indication of the selectivity of the anti-HIV activity of the inhibitor. Wherever results are reported as e.g. pEC50 or pCC50 values, the result is expressed as the negative logarithm of the result expressed as EC50 or CC50 respectively.
(§2) Because of the increasing emergence of drug resistant HIV strains, the present compounds were tested for their potency against clinically isolated HIV strains harboring several mutations (Table 7 and 8).
(§3) As a measure of the broad spectrum activity of the present compounds, the fold resistance (FR), defined as FR=EC50 (mutant strain)/EC50 (HIV-1 strain LAI), was determined.

HIV strain D = assay: Cellular anti-HIV assay, clinically isolated mutant strain D; assay type: cell-based; details: FR=EC50 (mutant strain)/EC50 (HIV-1 strain LAI)
Protocol: as §1, §2, §3

HIV strain F = assay: Cellular anti-HIV assay, clinically isolated mutant strain F; assay type: cell-based; details: FR=EC50 (mutant strain)/EC50 (HIV-1 strain LAI)
Protocol: as §1, §2, §3

HIV-1 strain LAI = assay: Cellular anti-HIV assay (MTT), wild type strain; assay type: cell-based; details: for pEC50: MT4 cells, five days, MTT, HIV-1 strain LAI, Tables 1-6; for WT (pEC50 against wild type HIV-LAI strain): Table 8
Protocol: The compounds of the present invention were examined for anti-viral activity in a cellular assay. […] The cellular assay was performed according to the following procedure.

HIV strain B = assay: Cellular anti-HIV assay, clinically isolated mutant strain B; assay type: cell-based; details: FR=EC50 (mutant strain)/EC50 (HIV-1 strain LAI)
Protocol: as §1, §2, §3

mock-infected MT4 cells = assay: Toxicity on mock-infected cells (MTT)
Protocol: as §1, §3

HIV strain E = assay: Cellular anti-HIV assay, clinically isolated mutant strain E; assay type: cell-based; details: FR=EC50 (mutant strain)/EC50 (HIV-1 strain LAI)
Protocol: as §1, §2, §3

HIV strain A = assay: Cellular anti-HIV assay, clinically isolated mutant strain A; assay type: cell-based; details: FR=EC50 (mutant strain)/EC50 (HIV-1 strain LAI)
Protocol: as §1, §2, §3

[1] = pCC50 with mock transfected cells

Molecule | C (FR towards mutant C) (HIV strain C) | D (FR towards mutant D) (HIV strain D) | F (FR towards mutant F) (HIV strain F) | pEC50 (HIV-1 strain LAI) | WT (pEC50 against wild type HIV-LAI strain) (HIV-1 strain LAI) | B (FR towards mutant B) (HIV strain B) | Tox (pCC50) (mock-infected MT4 cells) | E (FR towards mutant E) (HIV strain E) | A (FR value towards mutant A) (HIV strain A) | Tox (pCC50) (mock-infected MT4 cells; [1])
CC(C)CN(CC(O)C(Cc1ccccc1)NC(=O)OC1COC2OCCC12)S(=O)(=O)c1ccc(-c2csc(NCCCN(C)C)n2)cc1 (stereo not shown) [Compound 6] | 1.2 | 3.8 | 79 | 7.5 | 7.5 | 4.7 | 4.69 | 6.6 | 6.2 | 
CC(C)CN(CC(O)C(Cc1ccccc1)NC(=O)OC1COC2OCCC12)S(=O)(=O)c1ccc(-c2c[nH]c(NC(=O)OC3COC4OCCC34)n2)cc1 (stereo not shown) [Compound 33] | 0.2 |  | 2.6 | 6.7 | 6.7 | 0.66 |  | 0.19 | 0.71 | <4.0
CC(C)CN(C[C@@H](O)[C@H](Cc1ccccc1)NC(=O)O[C@H]1CO[C@H]2OCC[C@H]21)S(=O)(=O)c1ccc(-c2noc(-c3ccco3)n2)cc1 [Compound 38, [(1S,2R)-3-[N-[4-(5-(furan-2-yl)oxadiazol-3-yl)phenylsulfonyl]-N-(2-methylpropyl)amino]-2-hydroxy-1-(phenylmethyl)propyl]carbamic acid, [(3R,3aS,6aR)-hexahydrofuro[2,3-b]furan-3-yl]ester] | 6.8 | 14.8 | 44.7 | 8.4 | 8.4 | 23 |  | 9.5 | 30 | <4.49
CC(=O)Nc1nc(-c2ccc(S(=O)(=O)N(CC(C)C)CC(O)C(Cc3ccccc3)NC(=O)OC3COC4OCCC34)cc2)c[nH]1 (stereo not shown) [Compound 32] | 0.33 |  | 7.2 | 7.7 | 7.7 | 1.0 |  | 0.95 | 1.3 | <4.0
CCCc1nc(-c2ccc(S(=O)(=O)N(CC(C)C)CC(O)C(Cc3ccccc3)NC(=O)OC3COC4OCCC34)cc2)co1 (stereo not shown) [Compound 40] | 4.1 | 12.9 | 219 | 8.5 | 8.5 |  | <4.49 | 41 | 5.0 | 
CC(=O)Nc1nc(-c2ccc(S(=O)(=O)N(CC(C)C)CC(O)C(Cc3ccccc3)NC(=O)OC3COC4OCCC34)cc2)cs1 (stereo not shown) [Compound 3] | 7.4 | 26 | 151 | 8.3 | 8.3 | 8.9 |  | 17 | 39 | 4.11
CC(C)CN(CC(O)C(Cc1ccccc1)NC(=O)OC1COC2OCCC12)S(=O)(=O)c1ccc(-c2csc(N)n2)cc1 (stereo not shown) [Compound 2] | 3.0 | 9.3 | 91 | 8.5 | 8.5 | 10.0 | 4.07 | 8.9 | 26 | 
[(1S,2R)-2-hydroxy-3-[N-[4-(2-methylaminothiazol-4-yl)phenylsulfonyl]-N-(2-methylpropyl)amino]-1-(phenylmethyl)propyl]carbamic acid, [(3R,3aS,6aR)-hexahydrofuro[2,3-b]furan-3-yl]ester [Compound 1] | 1.2 | 7.9 | 42 | 8.5 | 8.5 | 2.1 |  | 5.0 | 5.4 | 4.19
CC(=O)OC(c1ccccc1)c1nc(-c2ccc(S(=O)(=O)N(CC(C)C)CC(O)C(Cc3ccccc3)NC(=O)OC3COC4OCCC34)cc2)co1 (stereo not shown) [Compound 48] | 5.8 | 17 |  | 8.3 | 8.3 | 25 | <4.0 | 6.9 | 89 | 
COc1cccc(-c2nc(-c3ccc(S(=O)(=O)N(CC(C)C)CC(O)C(Cc4ccccc4)NC(=O)OC4COC5OCCC45)cc3)co2)c1 (stereo not shown) [Compound 44] | 8.1 | 15 | 77 | 8.0 | 8.0 | 14 |  | 13 | 39 | <4.49
Cc1nc(-c2ccc(S(=O)(=O)N(CC(C)C)CC(O)C(Cc3ccccc3)NC(=O)OC3COC4OCCC34)cc2)co1 (stereo not shown) [Compound 35] | 8.3 | 6.2 | 42 | 8.4 | 8.4 | 10.5 | <4.0 | 8.3 | 11 | 
CC(C)CN(CC(O)C(Cc1ccccc1)NC(=O)OC1COC2OCCC12)S(=O)(=O)c1ccc(-c2coc(-c3ccc([N+](=O)[O-])cc3)n2)cc1 (stereo not shown) [Compound 43] | 9.1 | 10.2 |  | 7.9 | 7.9 | 23 |  | 6.6 | 54 | <4.0
